SMILES strings stand for the structures.

One may read the IC50 as the concentration that inhibits the measured activity by half. By melting point is commonly meant the temperature of the solid-liquid transition.

For the first data set, the target named is T1, human CRF receptor (Homo sapiens, UniProt P34998).
T1 construct: expressed in transfected cells; host or cells: CHO cells (membrane fraction)
T1 sequence (P34998 24-415): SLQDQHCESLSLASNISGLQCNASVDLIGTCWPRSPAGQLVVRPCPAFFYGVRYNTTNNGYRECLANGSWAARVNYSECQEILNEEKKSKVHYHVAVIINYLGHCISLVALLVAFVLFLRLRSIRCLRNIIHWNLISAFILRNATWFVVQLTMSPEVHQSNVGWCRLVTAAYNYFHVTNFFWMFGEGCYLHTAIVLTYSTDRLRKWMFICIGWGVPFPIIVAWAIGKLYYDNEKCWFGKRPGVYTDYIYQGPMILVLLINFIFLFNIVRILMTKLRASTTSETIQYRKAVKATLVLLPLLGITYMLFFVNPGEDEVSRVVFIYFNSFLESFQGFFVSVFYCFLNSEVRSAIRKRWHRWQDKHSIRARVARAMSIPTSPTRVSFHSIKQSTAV
Description: Measurement of CRF Binding Inhibitory Rate (receptor binding experiment with 125I-CRF). As to conditions: human CRF receptor expressing CHO cellular membrane fraction; 50 pM ovine 125I-CRF; 0.05 nM to 10 μM of compound; room temperature 1.5 hr; read-out: IC50 values (CRF binding inhibition). The method, then: Measurement of CRF Binding Inhibitory Rate
A receptor binding experiment was carried out using a human CRF receptor expressing CHO cellular membrane fraction and ovine CRF, [^125I]-tyr^0(^125I-CRF). 1000 nM of a test compound was incubated with 1 μg of human CRF receptor expressing CHO cellular membrane fraction and 50 pM of ^125I-CRF in a binding assay buffer (50 mM Tris-HCl, 5 mM EDTA, 10 mM MgCl2, 0.05% CHAPS, 0.1% BSA, 0.5 mM PMSF, 0.1 μg/mL pepstatin, 20 μg/mL leupeptin, pH 7.5). In addition, for measuring nonspecific binding (NSB), 0.1 μM unlabelled human Urocortin was incubated with 5 μg of human CRF receptor expressing CHO cellular membrane fraction and 50 pM of ^125I-CRF in a binding assay buffer. After a binding reaction was carried out at room temperature for 1.5 hr, the membrane was entrapped on a glass filter (UniFilter plate GF-C/Perkin Elmer) by suction filtration using a cell harvester (Perkin Elmer), and washed with ice-cooled 50 mM Tris-HCl (pH 7.5). After drying the glass filter, a liquid scintillation cocktail (Microscinti 0, Perkin Elmer) was added, and the radioactivity of ^125I-CRF remaining on a glass filter was measured using Topcount (Perkin Elmer).
(TB-SB)/(TB-NSB)×100 (SB: radioactivity when a compound is added, TB: maximum binding radioactivity, NSB: nonspecific binding radioactivity) were calculated to obtain binding inhibitory rates under the range of the presence from 0.05 nM to 10 μM of each compounds. The IC50 values were calculated by using GraphPad Prism software.
As for `CCC(CC)c1ccc(OC)c2nc(Oc3nn(C)c(C)c3C)n(C)c12` [Example 14, 7-(1-Ethylpropyl)-4-methoxy-1-methyl-2-[(1,4,5-trimethyl-1H-pyrazol-3-yl)oxy]-1H-benzimidazole], the IC50 is less than 1 µM.

Turning to `CCC(CC)c1ccc(O)c2nc(Nc3c(C)cc(Cl)cc3Cl)n(C)c12` [Example 90, 2-[(2,4-Dichloro-6-methylphenyl)amino]-7-(1-ethylpropyl)-1-methyl-1H-benzimidazol-4-ol], the IC50 is less than 1 µM.

With `CCC(CC)c1ccc(Cl)c2nc(Oc3c(C)cc(OC(F)(F)F)cc3CN(C)C)n(C)c12` [Example 84, 1-[2-{[4-Chloro-7-(1-ethylpropyl)-1-methyl-1H-benzimidazol-2-yl]oxy}-3-methyl-5-(trifluoromethoxy)phenyl]-N,N-dimethylmethanamine], the IC50 was less than 1 µM.

Take `CCC(CC)c1ccc(OC)c2nc(Oc3ccc(OC(F)(F)F)cc3Cl)n(C)c12` [Example 1, 2-[2-Chloro-4-(trifluoromethoxy)phenoxy]-7-(1-ethylpropyl)-4-methoxy-1-methyl-1H-benzimidazole]: the IC50 was less than 1 µM.

Test system in the next data set: not given
Assay: not given
Conditions: not given
`CCC(CC)c1ccc(Cl)c2nc(Nc3c(C)cc(Cl)cc3Br)n(C)c12` [Example 49, N-(2-Bromo-4-chloro-6-methylphenyl)-4-chloro-7-(1-ethylpropyl)-1-methyl-1H-benzimidazol-2-amine] had a melting point of 232 to 233 °C.

As for `CCC(CC)c1ccc(Cl)c2nc(Oc3cccc4c3CN(C)C4)n(C)c12` [Example 54, 4-Chloro-7-(1-ethylpropyl)-1-methyl-2-[(2-methyl-2,3-dihydro-1H-isoindol-4-yl)oxy]-1H-benzimidazole], the melting point lay within 99 to 100 °C.

Consider `CCC(CC)c1ccc(Cl)c2nc(Nc3ccc(Cl)cc3Cl)n(CCO)c12` [Example 100, 2-[4-Chloro-2-[(2,4-dichlorophenyl)amino]-7-(1-ethylpropyl)-1H-benzimidazol-1-yl]ethanol], for which the melting point was 192 to 193 °C.

As to `CCC(CC)c1ccc(Cl)c2nc(Nc3c(C)cc(S(C)(=O)=O)cc3OC)n(C)c12` [Example 47, 4-Chloro-7-(1-ethylpropyl)-N-[2-methoxy-6-methyl-4-(methylsulfonyl)phenyl]-1-methyl-1H-benzimidazol-2-amine], the melting point lay within 234 to 236 °C.

Molecule `CCC(CC)c1ccc(Cl)c2nc(Nc3c(C)cc(C(N)=O)cc3OC)n(C)c12` [Example 48, 4-{[4-Chloro-7-(1-ethylpropyl)-1-methyl-1H-benzimidazol-2-yl]amino}-3-methoxy-5-methylbenzamide] registered a melting point of 298 to 299 °C.

In turn, `CCC(CC)c1ccc(Cl)c2nc(Oc3c(C)cc(Br)cc3Cl)n(C)c12` [Example 33, 2-(4-Bromo-2-chloro-6-methylphenoxy)-4-chloro-7-(1-ethylpropyl)-1-methyl-1H-benzimidazole] yielded a melting point of 163 to 164 °C.

In turn, `CCC(CC)c1ccc(OC)c2nc(Nc3ccc(Cl)cc3N(C)C)n(C)c12` [Example 21, 4-Chloro-N^1-[7-(1-ethylpropyl)-4-methoxy-1-methyl-1H-benzimidazol-2-yl]-N^2,N^2-dimethylbenzene-1,2-diamine] returned a melting point of 47 to 49 °C.

`CCc1ccc(C(CC)CC)c2c1nc(Oc1c(C)cc(Cl)cc1Cl)n2C` [Example 71, 2-(2,4-Dichloro-6-methylphenoxy)-4-ethyl-7-(1-ethylpropyl)-1-methyl-1H-benzimidazole] showed a melting point of 96 to 97 °C.

Turning to `CCC(CC)c1ccc(Cl)c2nc(Oc3c(Cl)cc(OC(F)(F)F)cc3Br)n(C)c12` [Example 41, 2-[2-Bromo-6-chloro-4-(trifluoromethoxy)phenoxy]-4-chloro-7-(1-ethylpropyl)-1-methyl-1H-benzimidazole], the melting point was 149 to 151 °C.

In turn, `CCC(CC)c1ccc(Cl)c2nc(Nc3c(C)cc(-n4cccn4)cc3OC)n(C)c12` [Example 57, 4-Chloro-7-(1-ethylpropyl)-N-[2-methoxy-6-methyl-4-(1H-pyrazol-1-yl)phenyl]-1-methyl-1H-benzimidazol-2-amine] showed a melting point of 237 to 239 °C.

Regarding `CCC(CC)c1ccc(OC)c2nc(Oc3ccc(OC(F)(F)F)cc3-n3ccnc3)n(C)c12` [Example 82, 7-(1-Ethylpropyl)-2-[2-(1H-imidazol-1-yl)-4-(trifluoromethoxy)phenoxy]-4-methoxy-1-methyl-1H-benzimidazole], the melting point lay in the range of 168 to 169 °C.

For `CCOc1ccc(C(CC)CC)c2c1nc(Oc1c(C)cc(Cl)cc1Cl)n2C` [Example 73, 2-(2,4-Dichloro-6-methylphenoxy)-4-ethoxy-7-(1-ethylpropyl)-1-methyl-1H-benzimidazole], the melting point was in the range of 116 to 117 °C.

Take `CCC(CC)c1ccc(OC)c2nc(Oc3ccc(Cl)cc3CN(C)C)n(C)c12` [Example 9, 1-(5-Chloro-2-{[7-(1-ethylpropyl)-4-methoxy-1-methyl-1H-benzimidazol-2-yl]oxy}phenyl)-N,N-dimethylmethanamine]: the melting point was 121 to 123 °C.

In the case of `CCC(CC)c1ccc(OC)c2nc(Nc3ccc(OC(F)(F)F)cc3Cl)n(C)c12` [Example 18, N-[2-Chloro-4-(trifluoromethoxy)phenyl]-7-(1-ethylpropyl)-4-methoxy-1-methyl-1H-benzimidazol-2-amine], the melting point fell in the range of 175 to 177 °C.

In turn, `CCC(CC)c1ccc(Cl)c2nc(Nc3c(C)cc([S+](C)[O-])cc3OC)n(C)c12` (stereo not shown) [Example 46, 4-Chloro-7-(1-ethylpropyl)-N-[2-methoxy-6-methyl-4-(methylsulfinyl)phenyl]-1-methyl-1H-benzimidazol-2-amine] had a melting point of 222 to 223 °C.

Regarding `CCC(CC)c1ccc(Cl)c2nc(Oc3c(C)cc([Si](C)(C)C)cc3Cl)n(C)c12`, the melting point lay within 146 to 148 °C.

As to `CCC(CC)c1ccc(Cl)c2nc(Oc3c(Cl)cc(Cl)cc3NC)n(C)c12` [Example 28, 3,5-Dichloro-2-{[4-chloro-7-(1-ethylpropyl)-1-methyl-1H-benzimidazol-2-yl]oxy}-N-methylaniline], the melting point was 162 to 163 °C.

The molecule `CCOc1ccc(C(CC)CC)c2c1nc(Oc1ccc(Cl)cc1Br)n2C` [Example 72, 2-(2-Bromo-4-chlorophenoxy)-4-ethoxy-7-(1-ethylpropyl)-1-methyl-1H-benzimidazole] displayed a melting point of 93 to 94 °C.

For the molecule `CCC(CC)c1ccc(Cl)c2nc(Nc3c(C)cc(-n4ccc(C(F)(F)F)n4)cc3OC)n(C)c12` [Example 58, 4-Chloro-7-(1-ethylpropyl)-N-{2-methoxy-6-methyl-4-[3-(trifluoromethyl)-1H-pyrazol-1-yl]phenyl}-1-methyl-1H-benzimidazol-2-amine], the melting point fell in the range of 249 to 251 °C.

Turning to `CCC(CC)c1ccc(OC)c2nc(Nc3ccc(Cl)cc3C(F)(F)F)n(C)c12` [Example 17, N-[4-Chloro-2-(trifluoromethyl)phenyl]-7-(1-ethylpropyl)-4-methoxy-1-methyl-1H-benzimidazol-2-amine], the melting point was in the range of 122 to 123 °C.

In turn, `CCC(CC)c1ccc(OC)c2nc(Nc3ccc(C(F)(F)F)cc3Cl)n(C)c12` [Example 16, N-[2-Chloro-4-(trifluoromethyl)phenyl]-7-(1-ethylpropyl)-4-methoxy-1-methyl-1H-benzimidazol-2-amine] came in with a melting point of 170 to 171 °C.

`CCC(CC)c1ccc(OC)c2nc(Oc3ccc(C)nc3C(F)(F)F)n(C)c12` [Example 11, 7-(1-Ethylpropyl)-4-methoxy-1-methyl-2-{[6-methyl-2-(trifluoromethyl)pyridin-3-yl]oxy}-1H-benzimidazole] registered a melting point of 135 to 137 °C.

`CCC(CC)c1ccc(Cl)c2nc(Oc3c(Cl)cc(Cl)cc3Br)n(C)c12` [Example 23, 2-(2-Bromo-4,6-dichlorophenoxy)-4-chloro-7-(1-ethylpropyl)-1-methyl-1H-benzimidazole] gave a melting point of 165 to 167 °C.

As for `CCC(CC(=O)O)c1ccc(Cl)c2nc(Oc3c(C)cc(Cl)cc3Cl)n(C)c12` (stereo not shown) [Example 99, 3-[4-Chloro-2-(2,4-dichloro-6-methylphenoxy)-1-methyl-1H-benzimidazol-7-yl]pentanoic acid], the melting point lay within 201 to 202 °C.

These data come from patent US20100056515A1, “BENZIMIDAZOLE COMPOUNDS” (priority 2006, published 2010).
